EP1403247A1, “N-Alkanoylphenylalanine derivatives” (F.HOFFMANN-LA ROCHE AG, priority 1997, dated 1999)
Each block holds one compound with its values, some of them ahead of it.

Columns and labels:
VLA-4 (a4b1 integrin) [1] = biological target: T1, VLA-4 (a4b1 integrin) (Homo sapiens, UniProt P05556+P13612); test: Ramos (VLA-4) / VCAM-1 Cell-Based Screening Assay (Ramos-VCAM-1 cell adhesion assay); conditions: Calcein-AM labeled Ramos cells adhering to immobilized recombinant human VCAM-1; 45 min at room temperature
T1 construct: followed by 10 µl of Ramos cell-derived VLA-4; endogenous in cells; host or cells: Ramos cells (VLA-4 derived from them; method of extraction or purification not described)
T1 sequence (P13612 34-1032): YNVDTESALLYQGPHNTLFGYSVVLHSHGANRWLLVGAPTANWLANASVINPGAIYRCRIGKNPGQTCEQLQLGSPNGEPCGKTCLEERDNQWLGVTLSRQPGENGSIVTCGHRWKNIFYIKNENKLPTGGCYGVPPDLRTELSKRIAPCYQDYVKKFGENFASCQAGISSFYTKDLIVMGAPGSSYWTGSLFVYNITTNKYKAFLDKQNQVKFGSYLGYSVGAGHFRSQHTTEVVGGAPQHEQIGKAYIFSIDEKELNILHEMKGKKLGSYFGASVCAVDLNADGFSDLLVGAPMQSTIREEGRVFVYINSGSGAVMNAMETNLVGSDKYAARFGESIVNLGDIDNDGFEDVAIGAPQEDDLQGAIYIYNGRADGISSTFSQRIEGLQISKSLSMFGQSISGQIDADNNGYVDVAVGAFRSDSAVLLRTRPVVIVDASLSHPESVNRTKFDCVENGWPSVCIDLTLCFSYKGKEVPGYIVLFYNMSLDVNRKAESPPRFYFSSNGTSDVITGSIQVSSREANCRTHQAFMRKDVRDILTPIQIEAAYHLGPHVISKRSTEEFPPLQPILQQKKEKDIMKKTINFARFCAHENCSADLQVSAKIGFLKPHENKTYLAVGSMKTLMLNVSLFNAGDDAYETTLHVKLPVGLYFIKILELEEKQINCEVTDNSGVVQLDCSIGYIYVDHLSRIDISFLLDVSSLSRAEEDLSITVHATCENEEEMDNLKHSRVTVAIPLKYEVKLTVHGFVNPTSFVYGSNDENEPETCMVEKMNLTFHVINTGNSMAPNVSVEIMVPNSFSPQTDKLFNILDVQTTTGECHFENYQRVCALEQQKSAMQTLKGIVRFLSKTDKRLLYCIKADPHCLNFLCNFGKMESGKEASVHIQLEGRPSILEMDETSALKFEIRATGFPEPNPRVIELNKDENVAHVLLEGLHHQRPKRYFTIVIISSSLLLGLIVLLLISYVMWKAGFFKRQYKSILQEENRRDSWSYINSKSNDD
T1 sequence (P05556 21-798): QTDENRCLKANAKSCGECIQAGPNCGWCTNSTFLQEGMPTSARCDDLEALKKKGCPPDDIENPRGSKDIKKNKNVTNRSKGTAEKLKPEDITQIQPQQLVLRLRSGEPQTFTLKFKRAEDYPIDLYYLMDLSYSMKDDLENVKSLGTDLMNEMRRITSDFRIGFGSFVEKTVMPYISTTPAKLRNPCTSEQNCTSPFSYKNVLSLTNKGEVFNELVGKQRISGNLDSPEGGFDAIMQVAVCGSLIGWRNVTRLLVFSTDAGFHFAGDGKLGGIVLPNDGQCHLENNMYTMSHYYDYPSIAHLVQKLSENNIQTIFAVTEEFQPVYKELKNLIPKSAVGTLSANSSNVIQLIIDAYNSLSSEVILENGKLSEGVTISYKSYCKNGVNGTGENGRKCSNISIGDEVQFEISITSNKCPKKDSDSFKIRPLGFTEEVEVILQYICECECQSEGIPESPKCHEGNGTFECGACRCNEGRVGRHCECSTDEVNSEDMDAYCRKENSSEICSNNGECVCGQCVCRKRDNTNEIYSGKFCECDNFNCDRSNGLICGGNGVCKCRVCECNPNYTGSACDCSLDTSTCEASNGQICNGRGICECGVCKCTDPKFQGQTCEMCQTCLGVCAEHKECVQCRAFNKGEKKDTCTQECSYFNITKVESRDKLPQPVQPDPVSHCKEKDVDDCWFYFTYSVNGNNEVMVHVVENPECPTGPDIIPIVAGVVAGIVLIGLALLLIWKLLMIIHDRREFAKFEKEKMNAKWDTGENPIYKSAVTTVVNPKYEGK
Text: Ramos (VLA-4) / VCAM-1 Cell-Based Screening Assay Protocol
Calcein-AM was purchased from Molecular Probes Inc.
VLA-4 (a4b1 integrin) antagonist activity, defined as ability to compete with cell-surface VLA-4 for binding to immobilized VCAM-1, was quantitated using a Ramos-VCAM-1 cell adhesion assay. Ramos cells bearing cell-surface VLA-4, were labeled with a fluorescent dye (Calcein-AM) and allowed to bind VCAM-1 in the presence or absence of test compounds.
Initially, this entailed coating 96 well plates (Nunc Maxisorp) with recombinant human VCAM-1 (100 ng in 100 µl PBS), sealing each plate and allowing the plates to stand at 4°C for ~18 hr. The VCAM-coated plates were subsequently washed twice with 0.05% Tween-20 in PBS, and then blocked for 1hr (room temperature) with 200 µl of Blocking Buffer (1% BSA/0.02% thimerosal) to reduce non-specific binding. Following the incubation with Blocking Buffer, plates were inverted, blotted and the remaining buffer aspirated. Each plate was then washed with 300 µl PBS, inverted and the remaining PBS aspirated.
Test compounds were dissolved in 100% DMSO and then diluted 1:25 in VCAM Cell Adhesion Assay Buffer (4 mM CaCl2, 4 mM MgCl2 in 50 mM TRIS-HCl, pH 7.5) (final DMSO = 4%). […] 100 µl/well of each dilution was added to the VCAM-coated plates, followed by 100 µl of Ramos cells (200,000 cells/well in 1% BSA/PBS). […] Plates were inverted to remove non-adherent cells, blotted and 300 µl/well PBS added. Plates were again inverted, blotted and the remaining buffer gently aspirated. 100 µl Lysis Buffer (0.1% SDS in 50 mM TRIS-HCl, pH 8.5) was added to each well and agitated for 2 min on a rotary shaking platform.

VLA-4 (a4b1 integrin) [2] = biological target: T1, VLA-4 (a4b1 integrin); test: VLA-4 / VCAM-1 Screening Assay (solid-phase, dual antibody ELISA); conditions: Ramos cell-derived VLA-4 binding to immobilized recombinant human VCAM-1; 1 mM MnCl2, 2 hr at 37 °C
Procedure: VLA-4 / VCAM-1 Screening Assay
VLA-4 antagonist activity, defined as ability to compete for binding to immobilized VCAM-1, was quantitated using a solid-phase, dual antibody ELISA. VLA-4 (a4b1 integrin) bound to VCAM-1 is detected by a complex of anti-integrin b1 antibody: HRP-conjugated anti-mouse IgG: chromogenic substrate (K-Blue). Initially, this entailed coating 96 well plates (Nunc Maxisorp) with recombinant human VCAM-1 (0.4 µg in 100 µl PBS), sealing each plate and then allowing the plates to stand at 4°C for ^~18 hr. […] On the day of assay, all plates are washed twice with VCAM Assay Buffer (200 µl/well of 50 mM Tris-HCl, 100 mM NaCl, 1 mM MnCl2, 0.05% Tween 20; pH 7.4). Test compounds are dissolved in 100% DMSO and then diluted 1:20 in VCAM Assay Buffer supplemented with 1mg/mL BSA (i.e., final DMSO = 5%). […] 100 µl per well of each dilution is added to the VCAM-coated plates, followed by 10 µl of Ramos cell-derived VLA-4. These plates are sequentially mixed on a platform shaker for 1 min, incubated for 2 hr at 37 °C, and then washed four times with 200 µl/well VCAM Assay Buffer. 100 µl of mouse anti-human integrin b1 antibody is added to each well (0.6 µg/mL in VCAM Assay Buffer + 1mg/mL BSA) and allowed to incubate for 1 hr at 37°C. At the conclusion of this incubation period, all plates are washed four times with VCAM Assay Buffer (200 µl/well). A corresponding second antibody, HRP-conjugated goat anti-mouse IgG (100 µl per well @ 1:800 dilution in VCAM Assay Buffer + 1mg/mL BSA), is then added to each well, followed by a 1 hr incubation at room temperature and concluded by three washes (200µl/well) with VCAM Assay Buffer. Color development is initiated by addition of 100 µl K-Blue per well (15 min incubation, room temp) and terminated by addition of 100 µl Red Stop Buffer per well. […] Results are calculated as % inhibition of total binding (i.e., VLA-4 + VCAM-1 in the absence of test compound).

SMILES: COc1ccc(Br)c(C(=O)NC(Cc2ccc(NC(=O)c3c(C)ccnc3C)cc2)C(=O)O)c1 (stereo not drawn) [Example 108]
- IC50 (VLA-4 (a4b1 integrin) [1]): 22 nM
- IC50 (VLA-4 (a4b1 integrin) [2]): 0.63 nM

SMILES: Cc1cc(CC(NC(=O)c2c(C)cccc2Cl)C(=O)O)ccc1NC(=O)CCc1cccc(O)c1 (stereo not drawn) [Example 120]
- IC50 (VLA-4 (a4b1 integrin) [1]): 439 nM
- IC50 (VLA-4 (a4b1 integrin) [2]): 4.5 nM

Continued by falling IC50 (VLA-4 (a4b1 integrin) [2]), values first:

- IC50 (VLA-4 (a4b1 integrin) [1]): 515 nM
- IC50 (VLA-4 (a4b1 integrin) [2]): 5.8 nM
SMILES: Cc1cc(CC(NC(=O)c2c(C)cccc2Cl)C(=O)O)ccc1NC(=O)Cc1cccc(O)c1 (stereo not drawn) [Example 121]

- IC50 (VLA-4 (a4b1 integrin) [1]): 316 nM
- IC50 (VLA-4 (a4b1 integrin) [2]): 1.7 nM
SMILES: Cc1cc(CC(NC(=O)c2c(C)cccc2Cl)C(=O)O)ccc1NC(=O)c1c(Cl)cccc1Cl (stereo not drawn) [Example 123]

- IC50 (VLA-4 (a4b1 integrin) [2]): 0.51 nM
SMILES: O=C(NC(Cc1ccc(NC(=O)c2c(Cl)cccc2Cl)cc1)C(=O)O)c1ccccc1Cc1ccccc1 [Example 31, 4-[[(2,6-dichlorophenyl)carbonyl]amino]-N-[[(2-phenylmethyl)phenyl]carbonyl]-L-phenylalanine]
